{"source": "ChEMBL document CHEMBL5252628", "about": "“Novel xanthone antibacterials: Semi-synthesis, biological evaluation, and the action mechanisms” (Bioorg Med Chem, 2023)", "key": {"Staphylococcus aureus [1]": {"test_system": "Staphylococcus aureus", "experiment": "Inhibition of biofilm formation in methicillin-resistant Staphylococcus aureus 2 at 4 to 16 microg/ml incubated for 18 to 24 hrs by crystal violet staining based assay", "type": "functional, organism-based", "details": "dose 4-16 µg/ml, time 18-24 hrs"}, "Staphylococcus aureus [2]": {"test_system": "Staphylococcus aureus", "experiment": "Bactericidal activity against methicillin-resistant Staphylococcus aureus 2 assessed as reduction in colony forming unit at 1 to 8 times MIC incubated for 18 to 24 hrs by time kill assay", "type": "functional, organism-based", "details": "time 18-24 hrs"}, "Staphylococcus aureus [3]": {"test_system": "Staphylococcus aureus", "experiment": "Antibacterial activity against Staphylococcus aureus ATCC 29213 assessed as separation of plasma wall at 5 x MIC incubated for 2 hrs by transmission electron microscopy analysis", "type": "functional, organism-based"}, "Staphylococcus aureus [4]": {"test_system": "Staphylococcus aureus", "experiment": "Antibacterial activity against methicillin-resistant Staphylococcus aureus 2 assessed as cell wall loosening at 5 x MIC incubated for 2 hrs by transmission electron microscopy analysis", "type": "functional, organism-based"}, "Staphylococcus aureus [5]": {"test_system": "Staphylococcus aureus", "experiment": "Antibacterial activity against Staphylococcus aureus ATCC 29213 assessed as inhibition of bacterial growth incubated for 18 to 24 hrs by broth microdilution assay", "type": "functional", "details": "time 18-24 hrs"}, "Cell membrane [6]": {"test_system": "Cell membrane", "experiment": "Induction of membrane depolarization in Staphylococcus aureus ATCC 29213 at 5 x MIC incubated for 2 hrs by DiOC23 dye based based flow cytometry", "type": "subcellular"}, "Staphylococcus aureus [7]": {"test_system": "Staphylococcus aureus", "experiment": "Antibacterial activity against Staphylococcus aureus ATCC 43300 assessed as inhibition of bacterial growth incubated for 18 to 24 hrs by broth microdilution assay", "type": "functional", "details": "time 18-24 hrs"}, "Staphylococcus aureus [8]": {"test_system": "Staphylococcus aureus", "experiment": "Antibacterial activity against methicillin-resistant Staphylococcus aureus 2 assessed as inhibition of bacterial growth incubated for 18 to 24 hrs by broth microdilution assay", "type": "functional", "details": "time 18-24 hrs"}, "Staphylococcus aureus [9]": {"test_system": "Staphylococcus aureus", "experiment": "Bactericidal activity against Staphylococcus aureus ATCC 29213 assessed as reduction in colony forming unit at 1 to 8 times MIC incubated for 18 to 24 hrs by time kill assay", "type": "functional, organism-based", "details": "time 18-24 hrs"}, "L02": {"test_system": "L02", "experiment": "Cytotoxicity against human L02 cells assessed as reduction in cell viability at 25 ug/ml incubated for 72 hrs by CCK-8 assay", "type": "toxicity, cell-based", "details": "l02, 72 h, dose 25 µg/ml"}, "[10]": {"experiment": "Hemolytic activity in rabbit RBC assessed as hemolysis incubated for 1 hr by microtiter plate method", "type": "toxicity, cell-based, Oryctolagus cuniculus, Erythrocyte", "details": "red blood cells"}, "Staphylococcus aureus [11]": {"test_system": "Staphylococcus aureus", "experiment": "Antibacterial activity against Staphylococcus aureus ATCC 33591 assessed as inhibition of bacterial growth incubated for 18 to 24 hrs by broth microdilution assay", "type": "functional", "details": "time 18-24 hrs"}, "Staphylococcus aureus [12]": {"test_system": "Staphylococcus aureus", "experiment": "Antibacterial activity against Staphylococcus aureus ATCC 29213 assessed as appearance of circular vesicles at 5 x MIC incubated for 2 hrs by transmission electron microscopy analysis", "type": "functional, organism-based"}, "Staphylococcus aureus [13]": {"test_system": "Staphylococcus aureus", "experiment": "Antibacterial activity against Staphylococcus aureus SH-27 assessed as inhibition of bacterial growth incubated for 18 to 24 hrs by broth microdilution assay", "type": "functional", "details": "time 18-24 hrs"}, "Cell membrane [14]": {"test_system": "Cell membrane", "experiment": "Induction of cell membrane permeability in methicillin-resistant Staphylococcus aureus 2 at 5 x MIC incubated for 2 hrs by TO-PRO-3 reagent flow cytometry assay", "type": "subcellular"}, "Staphylococcus aureus [15]": {"test_system": "Staphylococcus aureus", "experiment": "Antibacterial activity against methicillin-resistant Staphylococcus aureus 2 assessed as appearance of circular vesicles at 5 x MIC incubated for 2 hrs by transmission electron microscopy analysis", "type": "functional, organism-based"}, "Salmonella enteritidis": {"test_system": "Salmonella enteritidis", "experiment": "Antibacterial activity against Salmonella enteritidis SM012 assessed as inhibition of bacterial growth incubated for 18 to 24 hrs by broth microdilution assay", "type": "functional, Salmonella enterica subsp. enterica serovar Enteritidis", "details": "Salmonella enterica, time 18-24 hrs"}, "Staphylococcus aureus [16]": {"test_system": "Staphylococcus aureus", "experiment": "Antibacterial activity against Staphylococcus aureus ATCC 29213 assessed as blurred space in cytoplasm and cell wall at 5 x MIC incubated for 2 hrs by transmission electron microscopy analysis", "type": "functional, organism-based"}, "Staphylococcus aureus [17]": {"test_system": "Staphylococcus aureus", "experiment": "Inhibition of biofilm formation in Staphylococcus aureus ATCC 29213 at 4 to 16 microg/ml incubated for 18 to 24 hrs by crystal violet staining based assay", "type": "functional, organism-based", "details": "dose 4-16 µg/ml, time 18-24 hrs"}, "A549": {"test_system": "A549", "experiment": "Cytotoxicity against human A549 cells assessed as reduction in cell viability at 25 ug/ml incubated for 72 hrs by CCK-8 assay", "type": "toxicity, cell-based", "details": "a549, 72 h, dose 25 µg/ml"}, "Staphylococcus aureus [18]": {"test_system": "Staphylococcus aureus", "experiment": "Antibacterial activity against methicillin-resistant Staphylococcus aureus 2 assessed as blurred space in cytoplasm and cell wall at 5 x MIC incubated for 2 hrs by transmission electron microscopy analysis", "type": "functional, organism-based"}, "Staphylococcus aureus [19]": {"test_system": "Staphylococcus aureus", "experiment": "Antibacterial activity against methicillin-resistant Staphylococcus aureus 2 assessed as separation of plasma wall at 5 x MIC incubated for 2 hrs by transmission electron microscopy analysis", "type": "functional, organism-based"}, "Staphylococcus aureus [20]": {"test_system": "Staphylococcus aureus", "experiment": "Antibacterial activity against Staphylococcus aureus ATCC 29213 assessed as cell wall loosening at 5 x MIC incubated for 2 hrs by transmission electron microscopy analysis", "type": "functional, organism-based"}, "Cell membrane [21]": {"test_system": "Cell membrane", "experiment": "Induction of cell membrane permeability in Staphylococcus aureus ATCC 29213 at 5 x MIC incubated for 2 hrs by TO-PRO-3 reagent flow cytometry assay", "type": "subcellular"}, "Escherichia coli": {"test_system": "Escherichia coli", "experiment": "Antibacterial activity against Escherichia coli ATCC 25922 assessed as inhibition of bacterial growth incubated for 18 to 24 hrs by broth microdilution assay", "type": "functional", "details": "time 18-24 hrs"}, "Cell membrane [22]": {"test_system": "Cell membrane", "experiment": "Induction of membrane depolarization in methicillin-resistant Staphylococcus aureus 2 at 5 x MIC incubated for 2 hrs by DiOC23 dye based based flow cytometry", "type": "subcellular"}, "[23]": {"experiment": "Cytotoxicity against human L02 cells assessed as reduction in cell viability incubated for 72 hrs by CCK-8 assay", "type": "toxicity, cell-based"}, "[24]": {"experiment": "Cytotoxicity against human A549 cells assessed as reduction in cell viability incubated for 72 hrs by CCK-8 assay", "type": "toxicity, cell-based"}}, "note": "Calls of active or inactive are those of the source. The rule behind the calls is not given here."}
{"compound": "COc1c(O)cc2oc3cc(O)c(CC=C(C)C)c(O)c3c(=O)c2c1CC=C(C)C", "note": "[MANGOSTIN]", "values": [{"measurement": "inhibition", "setting": "Staphylococcus aureus [1]", "value": "Dose-Dependent Effect"}, {"measurement": "Activity", "setting": "Staphylococcus aureus [2]", "value": "Active"}, {"measurement": "Activity", "setting": "Staphylococcus aureus [3]", "value": "Active"}, {"measurement": "Activity", "setting": "Staphylococcus aureus [4]", "value": "Active"}, {"measurement": "MIC", "setting": "Staphylococcus aureus [5]", "value": 2, "unit": "µg/mL"}, {"measurement": "Activity", "setting": "Cell membrane [6]", "value": "Active"}, {"measurement": "MIC", "setting": "Staphylococcus aureus [7]", "value": 1, "unit": "µg/mL"}, {"measurement": "MIC", "setting": "Staphylococcus aureus [8]", "value": 2, "unit": "µg/mL"}, {"measurement": "Activity", "setting": "Staphylococcus aureus [9]", "value": "Active"}, {"measurement": "Activity", "setting": "L02", "value": "Non-Toxic"}, {"measurement": "HC50 at 1 h", "setting": "[10]", "value": 26.2, "unit": "µg/mL"}, {"measurement": "MIC", "setting": "Staphylococcus aureus [11]", "value": 1, "unit": "µg/mL"}, {"measurement": "Activity", "setting": "Staphylococcus aureus [12]", "value": "Active"}, {"measurement": "MIC", "setting": "Staphylococcus aureus [13]", "value": 2, "unit": "µg/mL"}, {"measurement": "Activity", "setting": "Cell membrane [14]", "value": 100, "unit": "%"}, {"measurement": "Activity", "setting": "Staphylococcus aureus [15]", "value": "Active"}, {"measurement": "MIC", "setting": "Salmonella enteritidis", "value": "> 256", "unit": "µg/mL"}, {"measurement": "Activity", "setting": "Staphylococcus aureus [16]", "value": "Active"}, {"measurement": "inhibition", "setting": "Staphylococcus aureus [17]", "value": "Dose-Dependent Effect"}, {"measurement": "Activity", "setting": "A549", "value": "Non-Toxic"}, {"measurement": "Activity", "setting": "Staphylococcus aureus [18]", "value": "Active"}, {"measurement": "Activity", "setting": "Staphylococcus aureus [19]", "value": "Active"}, {"measurement": "Activity", "setting": "Staphylococcus aureus [20]", "value": "Active"}, {"measurement": "Activity", "setting": "Cell membrane [21]", "value": 100, "unit": "%"}, {"measurement": "MIC", "setting": "Escherichia coli", "value": "> 256", "unit": "µg/mL"}, {"measurement": "Activity", "setting": "Cell membrane [22]", "value": "Active"}]}
{"compound": "COc1c(OC(C)=O)cc2oc3cc(O)c(CC=C(C)C)c(O)c3c(=O)c2c1CC=C(C)C", "values": [{"measurement": "MIC", "setting": "Staphylococcus aureus [5]", "value": 4, "unit": "µg/mL"}, {"measurement": "IC50 at 72 h", "setting": "[23]", "value": 13.2, "unit": "µg/mL"}, {"measurement": "MIC", "setting": "Staphylococcus aureus [7]", "value": 2, "unit": "µg/mL"}, {"measurement": "MIC", "setting": "Staphylococcus aureus [8]", "value": 2, "unit": "µg/mL"}, {"measurement": "HC50 at 1 h", "setting": "[10]", "value": "> 500", "unit": "µg/mL"}, {"measurement": "MIC", "setting": "Staphylococcus aureus [11]", "value": 2, "unit": "µg/mL"}, {"measurement": "MIC", "setting": "Staphylococcus aureus [13]", "value": 2, "unit": "µg/mL"}, {"measurement": "IC50 at 72 h", "setting": "[24]", "value": 17.5, "unit": "µg/mL"}, {"measurement": "MIC", "setting": "Salmonella enteritidis", "value": "> 256", "unit": "µg/mL"}, {"measurement": "MIC", "setting": "Escherichia coli", "value": "> 256", "unit": "µg/mL"}]}
